Source: US20060217351A1, “Method for treating cardiovascular diseases” (priority 2003, published 2006)

Experiments:
[1] = storage stability of crystals; assay type: physicochemical; details: crystal form comparison
thrombus formation = details: rats, p.o., cited from earlier work; for ED50, prevention of thrombus formation: arteriovenous shunt model
platelet aggregation [2] = assay: comparative study of inhibition of platelet aggregation; assay type: in vivo; details: for inhibition of platelet aggregation: in thirty (30) minutes
cerebral infarct = assay: embolic cerebral infarction model; assay type: in vivo; details: rats
platelet aggregation [3] = assay: anti-platelet aggregation ability of active metabolite enantiomers; details: enantiomers of active metabolite II
Excerpt: The active metabolite is a mixture of four enantiomers each of which has shown dose dependent anti-platelet aggregation ability, and thus useful for the practice of the invention.

Structure (SMILES)	storage stability [1]	ED50, prevention of thrombus formation (thrombus formation) [mg/kg]	inhibition of platelet aggregation (platelet aggregation [2])	effect on total area of cerebral infarct (cerebral infarct)	further results
CC(=O)Oc1cc2c(s1)CCN(C(C(=O)C1CC1)c1ccccc1F)C2.Cl (stereo not drawn) [crystal B2, 2-Acetoxy-5-(α-cyclopropylcarbonyl-2-fluorobenzyl)-4,5,6,7-tetrahydrothieno[3,2-c]pyridine hydrochloride (crystal B2)]	more excellent storage stability than crystal B1	–	–	–	–
CC(=O)Oc1cc2c(s1)CCN(C(C(=O)C1CC1)c1ccccc1F)C2 (stereo not drawn) [compound of formula I, 2-Acetoxy-5-(α-cyclopropylcarbonyl-2-fluorobenzyl)-4,5,6,7-tetrahydrothieno[3,2-c]pyridine]	–	0.65	greater than 50%	reduced the total area of cerebral infarct in rats, in a dose related manner	effect on thrombus formation (thrombus formation; 0.12-3 mg/kg): prevented thrombus formation in a dose dependent manner; potency compared to clopidogrel (times higher) (platelet aggregation [2]; in vivo, versus clopidogrel): approximately 10 times
O=C(O)/C=C1/CN(C(C(=O)C2CC2)c2ccccc2F)CCC1S (stereo not drawn) [RS enantiomer]	–	–	–	–	anti-platelet aggregation ability (platelet aggregation [3]): most potent
COC(=O)[C@H](c1ccccc1Cl)N1CCc2sccc2C1 [clopidogrel bisulfate]	–	–	–	similar, yet milder effect on cerebral infarcts	potency compared to compound of formula I (times less potent) (cerebral infarct): about 10 times
COC(=O)[C@H](c1ccccc1Cl)N1CCc2sccc2C1 [clopidogrel, reference compound]	–	7.0	minimal aggregation	–	–
CC(=O)Oc1cc2c(s1)CCN(C(C(=O)C1CC1)c1ccccc1F)C2.Cl (stereo not drawn) [crystal B1, 2-Acetoxy-5-(α-cyclopropylcarbonyl-2-fluorobenzyl)-4,5,6,7-tetrahydrothieno[3,2-c]pyridine hydrochloride (crystal B1)]	more excellent storage stability than crystal A	–	–	–	–
